# Data reported in PubChem BioAssay AID463181 (University of Pittsburgh Molecular Library Screening Center, 2010).
# Inconclusive results are not listed. The source made the active and inactive calls.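 Rule for the calls: active = compounds with IC50 under 50 µM in each of two repeat runs and on average; inconclusive = just one of the two runs above 50 µM; inactive = both runs and average above 50 µM.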
# Columns and labels:
# [1] = L929 protection from caspase-blocker death, IC50 – L929 cells, duplicate IC50, dose response (AID 463181); conditions: L929 zVAD necroptosis rescue, ATP luminescence, 24 h; inhibition of cell death; at 50 µM; stronger effect = higher value
# [2] = system: L929 zVAD necroptosis rescue, ATP luminescence, 24 h; experiment: as above
compound,measurement,setting,value
C[C@H]1C[C@@H](C)C(=O)[C@@H]([C@H](O)CC2CC(=O)NC(=O)C2)C1,inhibition,[1],112%
same,IC50,[2],0.986 µM
Cn1c(N)c(C(=O)N/N=C/c2ccccc2)sc1=S,inhibition,[1],76.3%
same,IC50,[2],17.3 µM
COc1ccc(/C=C2\N=C(SC)NC2=O)cc1,inhibition,[1],80.6%
same,IC50,[2],5.22 µM
Cc1ccc2c(c1)C(C)CC(C)(C)N2C(=O)NC1CCCCC1 (stereo not drawn),inhibition,[1],1.73%
same,IC50,[2],> 20 µM (inactive)
O=C(C1=NNCC1c1ccc(Cl)cc1)C1CO1 (stereo not drawn),inhibition,[1],103%
same,IC50,[2],3.69 µM
CCc1cccc2c(C(=O)COC(=O)c3ccc(O)cc3)c[nH]c12,inhibition,[1],1.41%
same,IC50,[2],> 20 µM (inactive)
O=C(CCl)Nc1cc(SCC(O)CO)cc([N+](=O)[O-])c1 (stereo not drawn),inhibition,[1],94.4%
same,IC50,[2],14.4 µM
Nc1ccccc1Nc1cc(-c2ccccc2)[nH]n1,inhibition,[1],90.9%
same,IC50,[2],2.78 µM
Clc1ccc2[nH]c3c(c2c1)CCc1cn[nH]c1-3,inhibition,[1],103%
same,IC50,[2],2.63 µM
O=C(C1=NNCC1c1ccccc1)C1CO1 (stereo not drawn),inhibition,[1],87.3%
same,IC50,[2],15.8 µM
COc1cc(N=Cc2c(O)[nH]c3ccccc23)cc(OC)c1OC,inhibition,[1],89.1%
same,IC50,[2],7.09 µM
CN(C)S(=O)(=O)c1ccc(Cl)c(NC(=O)CSc2nnnn2-c2ccc(O)cc2)c1,inhibition,[1],78.6%
same,IC50,[2],17.7 µM
Cc1cn(-c2cc(C(=O)Nc3ccc(C)c(NC(=O)C(=O)c4c[nH]c5ccccc45)c3)cc(C(F)(F)F)c2)cn1,inhibition,[1],1.07%
same,IC50,[2],> 20 µM (inactive)
COc1cc(/C=N/Nc2nc3ccccc3s2)ccc1OC(=O)c1ccccc1F,inhibition,[1],1.24%
same,IC50,[2],> 20 µM (inactive)
c1ccc2c3c([nH]c2c1)-c1[nH]ncc1CC3,inhibition,[1],78.5%
same,IC50,[2],0.194 µM
COC(=O)c1ccn(Cc2ccccc2Cl)n1,inhibition,[1],81.2%
same,IC50,[2],16.3 µM
CCN1CCN(Cc2ccc(NC(=O)c3ccc(C)c(NC(=O)c4nccnc4N)c3)cc2C(F)(F)F)CC1,inhibition,[1],74%
same,IC50,[2],1.46 µM
O=C(CSc1nnc(NC2CCCCC2)s1)Nc1ccc2c(c1)C(=O)c1ccccc1C2=O,inhibition,[1],0.754%
same,IC50,[2],> 20 µM (inactive)
COc1ccc(/C=N/Nc2nc3ccccc3s2)cc1O,inhibition,[1],72.2%
same,IC50,[2],17.3 µM
CC(=O)Nc1ccc(/C=N/Nc2nc3ccccc3s2)cc1,inhibition,[1],70.2%
same,IC50,[2],18.8 µM
Cc1ccc(-c2nc(Nc3ccccc3)n[nH]2)cc1,inhibition,[1],0.11%
same,IC50,[2],> 20 µM (inactive)
O=C1Nc2ccccc2/C1=C/c1cnc[nH]1,inhibition,[1],85.9%
same,IC50,[2],9.67 µM
COc1cc(/C=N/Nc2ccc(C(F)(F)F)cn2)ccc1O,inhibition,[1],82.3%
same,IC50,[2],16.7 µM
O=C(Nc1nccs1)c1ccc(S(=O)(=O)NCc2cccs2)cc1,inhibition,[1],2.91%
same,IC50,[2],> 20 µM (inactive)
Clc1ccc(COn2ccnc2)cc1Cl,inhibition,[1],82.6%
same,IC50,[2],10.9 µM
COc1ccc(N=Cc2c(O)[nH]c3ccccc23)cc1OC,inhibition,[1],81.8%
same,IC50,[2],6.83 µM
O=C(Nc1cccc(Cl)c1)N1N=CCC1c1ccccc1 (stereo not drawn),inhibition,[1],81.4%
same,IC50,[2],16.9 µM
Cn1nnnc1SCc1ccc(C(=O)Nc2nccs2)cc1,inhibition,[1],76.4%
same,IC50,[2],16.9 µM
C=C1C(=O)[C@@]23[C@H](O)C[C@@H]4C(C)(C)CC[C@H](O)[C@@]4(C)[C@@H]2CC[C@@H]1[C@H]3O,inhibition,[1],144%
same,IC50,[2],10.1 µM
COc1cc(/C=N/Nc2ccccn2)ccc1O,inhibition,[1],91.1%
same,IC50,[2],14.9 µM
COc1cc(NC(=O)c2cnc(N)s2)cc(C(=O)Nc2cccc(C(F)(F)F)c2)c1,inhibition,[1],75.8%
same,IC50,[2],17.4 µM
O=C(CSc1nnnn1-c1ccc(O)cc1)Nc1cccc(S(=O)(=O)N2CCCC2)c1,inhibition,[1],86.9%
same,IC50,[2],5.89 µM
Cc1cnc(NC(=O)c2ccc(OCC3CCCO3)cc2)s1 (stereo not drawn),inhibition,[1],74.2%
same,IC50,[2],8.49 µM
COc1ccc(/C=N/Nc2ccccn2)cc1OC,inhibition,[1],80.7%
same,IC50,[2],16.3 µM
CCCc1cc(C(=O)Nc2nccs2)cs1,inhibition,[1],76.6%
same,IC50,[2],9.59 µM
Oc1ccc(/C=N/Nc2ccc(C(F)(F)F)cn2)cc1O,inhibition,[1],87.6%
same,IC50,[2],4.19 µM
Cc1noc(C)c1/C=N/Nc1ccccn1,inhibition,[1],81.6%
same,IC50,[2],16.9 µM
Cc1ccc2[nH]c3c(c2c1)CCc1cn[nH]c1-3,inhibition,[1],82.2%
same,IC50,[2],1.29 µM
CC(=O)OC[C@]12CCC(C)=C[C@H]1O[C@@H]1[C@H](O)[C@@H](OC(C)=O)[C@@]2(C)[C@]12CO2,inhibition,[1],114%
same,IC50,[2],< 0.039 µM
CCN1CCN(Cc2ccc(NC(=O)c3ccc(C)c(NC(=O)c4csc(-c5ccncc5)n4)c3)cc2C(F)(F)F)CC1,inhibition,[1],90.1%
same,IC50,[2],5.9 µM
O=C(/C=C/c1cccc(F)c1)Nc1nccs1,inhibition,[1],1.43%
same,IC50,[2],> 20 µM (inactive)
CCN1C(=O)/C(=C/c2ccc(C)s2)NC1=S,inhibition,[1],88.7%
same,IC50,[2],2.05 µM
COc1ccc(-n2cnnc2SCC(=O)Nc2cc(C(C)(C)C)nn2-c2ccccc2)cc1,inhibition,[1],70%
same,IC50,[2],4.77 µM
O=C1C=CC(O)(c2cc(=O)c3c(O)cc(O)cc3o2)C=C1,inhibition,[1],78.5%
same,IC50,[2],10.1 µM
O=C(OCn1ncc(Br)c(Br)c1=O)c1ccc(F)cc1,inhibition,[1],8.06%
same,IC50,[2],> 20 µM (inactive)
CCN(CC)CCn1c2ccccc2c2cnc(N)c(C#N)c21,inhibition,[1],68.7%
same,IC50,[2],17.7 µM
Cc1ccc(C2CC(=O)NC(SCC(=O)Nc3nccs3)=C2C#N)cc1 (stereo not drawn),inhibition,[1],80.8%
same,IC50,[2],0.251 µM
Cc1ccc(NC(=O)CSc2nnnn2-c2ccc3c(c2)OCO3)cc1C,inhibition,[1],0.243%
same,IC50,[2],> 20 µM (inactive)
C[C@@H]1C[C@@H]2O[C@H]2/C=C\C=C\C(=O)Cc2c(Cl)c(O)cc(O)c2C(=O)O1,inhibition,[1],120%
same,IC50,[2],0.372 µM
CCN1CCN(Cc2ccc(NC(=O)c3cc(NC(=O)c4cnn(-c5ccccc5)c4N)cc(OC)c3)cc2C(F)(F)F)CC1,inhibition,[1],80.3%
same,IC50,[2],9.96 µM
OCCCNc1nccc(-c2cc(Nc3cccc(Cl)c3)ncn2)n1,inhibition,[1],82.7%
same,IC50,[2],10.7 µM
Cc1cnc(NC(=O)c2cc3c(s2)CCCC3)s1,inhibition,[1],10.4%
same,IC50,[2],> 20 µM (inactive)
Cc1ccc(C(=O)Nc2cccc(C(F)(F)F)c2)cc1Nc1cnccn1,inhibition,[1],74.3%
same,IC50,[2],10.8 µM
O=C(Nc1nccs1)c1ccc(CSc2nnnn2-c2ccccc2)cc1,inhibition,[1],0.93%
same,IC50,[2],> 20 µM (inactive)
Nc1nnnn1/N=C/C(Br)=C/c1ccccc1,inhibition,[1],0.0265%
same,IC50,[2],> 20 µM (inactive)
CN(CC1CCCO1)S(=O)(=O)c1ccc(C(=O)Nc2nccs2)cc1 (stereo not drawn),inhibition,[1],97.5%
same,IC50,[2],7.39 µM
Brc1ccc(COn2ccnc2)cc1,inhibition,[1],79.8%
same,IC50,[2],16.8 µM
Cn1nc(C(C)(C)C)cc1NC(=O)Nc1cc(Cl)cc(Cl)c1,inhibition,[1],2.91%
same,IC50,[2],> 20 µM (inactive)
CCN(CC)Cc1cc2[nH]c3c4ccc(Cl)cc4ncc3c2cc1OC,inhibition,[1],0.811%
same,IC50,[2],> 20 µM (inactive)
O=C(CSc1nnnn1-c1ccc2c(c1)OCCO2)Nc1nc2c(s1)CCCC2,inhibition,[1],0.775%
same,IC50,[2],> 20 µM (inactive)
CC(=O)Nc1ccc(Sc2ncccc2C(=O)Nc2ccc(OC(F)(F)F)cc2)cn1,inhibition,[1],5.08%
same,IC50,[2],> 20 µM (inactive)
Cc1ccc(/C=N\Nc2nc3ccc(Cl)cc3[nH]2)o1,inhibition,[1],0.613%
same,IC50,[2],> 20 µM (inactive)
Cc1[nH]c2ccccc2c1/C=N/Nc1ccccn1,inhibition,[1],92.7%
same,IC50,[2],15 µM
Cc1cc(N/N=C/c2ccncc2)nc2ccccc12,inhibition,[1],81.6%
same,IC50,[2],18.5 µM
